Results taken from patent US20240197761A1, “FUCOSYLATION AND IMMUNE MODULATION IN CANCER” (H. LEE MOFFITT CANCER CENTER AND RESEARCH INSTITUTE, INC., priority 2021, published 2024).

Test system: SW1 tumors
Experiment: Immunodepletion mouse model (CD4+ or CD8+ T cell depletion), SW1
Assay type: in vivo, C3H/HeN mice
Text: Total TILs were gated first to single cells (based on forward scatter height vs width, followed by side scatter height vs. width). Live cells were gated from the Zombie negative population from the population above. TILs were gated based on splenocyte size from a control spleen. Individual immune subpopulations were sub-gated from the total TIL population using the following staining criteria: CD3+ for CD3+ T cells; CD3+/CD4+/CD8− for CD4+T cells; CD3+/CD4−/CD8+ for CD8+ T cells, CD11c+/CD11b+ for DCs; either NK1.1 (for C57/BL6 mice) or DX5 (for C3H/HeJ) for NK cells; CD11b+/GR1+ for MDSC-like cells; and F4/80+ for macrophages. Single-cell suspensions from tumor and spleen tissue were stained with Live/Dead Zombie NIR (Biolegend, (San Diego, CA)) at 1:1,000 in PBS for 20 min. Cell suspensions were spun down and stained with the following with antibodies at 0.5 μg/ml per antibody: APC anti-mouse CD3, Pacific Blue anti-mouse CD4, BV785 anti-mouse CD8, PerCP anti-mouse CD25, FITC anti-mouse F4/80, PeCy7 anti-mouse CD11c, PE anti-mouse NK1.1 or PE anti-mouse DX5, and PerCP-Cy5.5 anti-mouse CD11 b. After staining, the cells were washed and fixed (2% formaldehyde), followed by another wash and flow cytometric analysis. The compensation controls were prepared using 0.5 μg/mL of each antibody with UltraComp eBeads, (ThermoFisher Scientific (Waltham, MA)). All samples were subject to flow cytometric profiling using a LSR Flow Cytometer (BD Biosciences (San Jose, CA)) and analysis as indicated using FlowJo software (BD Biosciences (San Jose, CA)).
All animals were housed at the Vincent A. Stabile Research building animal facility at H. Lee Moffitt Cancer Center & Research Institute, which is fully accredited by the Association for Assessment and Accreditation of Laboratory Animal Care International (AAALAC, #434), and are managed in accordance with the Guide for the Care and Use of Laboratory Animals (“The Guide”), the Animal Welfare Regulations Title 9 Code of Federal Regulations Subchapter A, “Animal Welfare”, Parts 1-3 (AWR), the Public Health Service Policy on Humane Care and Use of Laboratory Animals (PHS Policy), and by the USF Institutional Animal Care and Use Committee's Principles and Procedures of Animal Care and Use (IACUC Principles). The experiments and protocols detailed in this study received institutional approval by the Moffitt IACUC (RIS00001625). Four-to-six-week-old female C3H/HeN and male C57BL6 mice were purchased from Charles Rivers Laboratories for the indicated experiments. Four-to-six-week-old male NSG mice from the Lau laboratory breeding colony were used for the indicated experiments. […] Mouse tumor volumes were measured using length, width and depth divided by 2. […]

SMILES: C[C@H](O)[C@@H](O)[C@@H](O)[C@H](O)C=O [L-fucose]
- reduction of tumor growth (CD4+T cell depletion): completely abrogated
- L-fuc-induced increases in total itICs (incl. NK, DC, CD8+T cells) (CD4+T cell-depletion): blocked
- reduction of tumor growth (CD8+T cell-depleted mice): > 50%
- reduction of tumor growth (control (PBS-injected) mice): > 50%
